Reference: ChEMBL document CHEMBL1201862, “PubChem BioAssay data set” (2004)
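48-hour exposure; five concentrations; linearly interpolated endpoints. GI50 = concentration required for 50% inhibition of growth.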 The source made the active and inactive calls. No stated cut-off is given here; in the data, active = GI50 up to about 1.1 µM and inactive = higher.

Key:
Assay in all cases: NCI-60 cell line screen, 48 h
UO-31 = system: UO-31
COLO 205 = system: COLO 205
SN12C = system: SN12C
DMS-273 = system: DMS-273
EKVX = system: EKVX
A498 = system: A498
KM12 = system: KM12
SK-MEL-5 = system: SK-MEL-5
HOP-62 = system: HOP-62
KM-20L2 = system: KM-20L2
TK-10 = system: TK-10
SK-OV-3 = system: SK-OV-3
SNB-19 = system: SNB-19
HL-60 = system: HL-60
M19-MEL = system: M19-MEL
Malme-3M = system: Malme-3M
ACHN = system: ACHN
NCI-H522 = system: NCI-H522
RXF 393 = system: RXF 393
DLD-1 = system: DLD-1
M14 = system: M14
SF-295 = system: SF-295
SK-MEL-28 = system: SK-MEL-28
HOP-92 = system: HOP-92
XF498 = system: XF498
NCI-H23 = system: NCI-H23
CCRF-CEM = system: CCRF-CEM
786-0 = system: 786-0
HT-29 = system: HT-29
SNB-75 = system: SNB-75
SR = system: SR
HOP-18 = system: HOP-18
SW-620 = system: SW-620
SK-MEL-2 = system: SK-MEL-2
U-251 = system: U-251
UACC-62 = system: UACC-62
LXFL 529 = system: LXFL 529
OVCAR-4 = system: OVCAR-4
UACC-257 = system: UACC-257
NCI-H226 = system: NCI-H226
MOLT-4 = system: MOLT-4
SF-539 = system: SF-539
HCT-116 = system: HCT-116
OVCAR-3 = system: OVCAR-3
OVCAR-8 = system: OVCAR-8
DMS-114 = system: DMS-114
A549 = system: A549
OVCAR-5 = system: OVCAR-5
HCC 2998 = system: HCC 2998
CAKI-1 = system: CAKI-1
IGROV-1 = system: IGROV-1
SNB-78 = system: SNB-78
HCT-15 = system: HCT-15
SF-268 = system: SF-268
NCI-H460 = system: NCI-H460
K562 = system: K562
LOX IMVI = system: LOX IMVI

Cc1cc(O)cc2oc(=O)c3c(O)cc(O)cc3c12 [ALTERNARIOL]
GI50 (UO-31): 34.6 µM (inactive)
GI50 (COLO 205): 27.4 µM (inactive)
GI50 (SN12C): 50.5 µM (inactive)
GI50 (DMS-273): 23 µM (inactive)
GI50 (EKVX): 6.71 µM (inactive)
GI50 (A498): 40.1 µM (inactive)
GI50 (KM12): 26.8 µM (inactive)
GI50 (SK-MEL-5): 18.5 µM (inactive)
GI50 (HOP-62): 20.7 µM (inactive)
GI50 (KM-20L2): 27.7 µM (inactive)
GI50 (TK-10): 44.5 µM (inactive)
GI50 (SK-OV-3): 18.5 µM (inactive)
GI50 (SNB-19): 20 µM (inactive)
GI50 (HL-60): 16.4 µM (inactive)
GI50 (M19-MEL): 58.6 µM (inactive)
GI50 (Malme-3M): 40.3 µM (inactive)
GI50 (ACHN): 14.1 µM (inactive)
GI50 (NCI-H522): 13.4 µM (inactive)
GI50 (RXF 393): 23.3 µM (inactive)
GI50 (DLD-1): 30.7 µM (inactive)
GI50 (M14): 60 µM (inactive)
GI50 (SF-295): 26.3 µM (inactive)
GI50 (SK-MEL-28): > 100 µM (inactive)
GI50 (HOP-92): 30.5 µM (inactive)
GI50 (XF498): 27.1 µM (inactive)
GI50 (NCI-H23): 20.7 µM (inactive)
GI50 (CCRF-CEM): 23.4 µM (inactive)
GI50 (786-0): 28.6 µM (inactive)
GI50 (HT-29): 39.3 µM (inactive)
GI50 (SNB-75): 12.7 µM (inactive)
GI50 (SR): 3.69 µM (inactive)
GI50 (HOP-18): 26.8 µM (inactive)
GI50 (SW-620): 16.2 µM (inactive)
GI50 (SK-MEL-2): 37.6 µM (inactive)
GI50 (U-251): 28.5 µM (inactive)
GI50 (UACC-62): 24 µM (inactive)
GI50 (LXFL 529): 59.6 µM (inactive)
GI50 (OVCAR-4): 65.3 µM (inactive)
GI50 (UACC-257): > 100 µM (inactive)
GI50 (NCI-H226): 19.5 µM (inactive)
GI50 (MOLT-4): 7.59 µM (inactive)
GI50 (SF-539): 17 µM (inactive)
GI50 (HCT-116): 17.6 µM (inactive)
GI50 (OVCAR-3): 23 µM (inactive)
GI50 (OVCAR-8): 43.2 µM (inactive)
GI50 (DMS-114): 34.4 µM (inactive)
GI50 (A549): 16.1 µM (inactive)
GI50 (OVCAR-5): 69.2 µM (inactive)
GI50 (HCC 2998): 18.5 µM (inactive)
GI50 (CAKI-1): 21 µM (inactive)
GI50 (IGROV-1): 19.7 µM (inactive)
GI50 (SNB-78): 34.5 µM (inactive)
GI50 (HCT-15): 18.2 µM
GI50 (SF-268): 27.4 µM (inactive)
GI50 (NCI-H460): 13.1 µM (inactive)
GI50 (K562): 36.6 µM (inactive)
GI50 (LOX IMVI): 16.1 µM (inactive)
